# According to patent publication US9474790B2, “Stable, protracted GLP-1/glucagon receptor co-agonists for medical use” (Novo Nordisk A/S, priority 2013, dated 2016):
# Numbered stars: 1 amine (or outer) side, 2 acyl side, 3 side chain; on linkers, the order of the positions; unused ones are H or OH. Square brackets hold non-standard residues; d marks the D form. Side chains are listed from the residue outwards. Peptide text beside a SMILES is read from it. * marks the point of attachment. C18 diacid = O=C(O)CCCCCCCCCCCCCCCCC(=O)*; γGlu = O=C(O)[C@H](CCC(=O)[*:2])N[*:1]; AEEA = NCCOCCOCC(=O)O; Aib = CC(C)(N)C(=O)O
# Test: Thioflavin T (ThT) fibrillation assay for physical stability
# Type: physicochemical
# Settings: 250 μM in 10 mM HEPES buffer, pH 7.5, 37° C., shaking 960 rpm
# Method in brief: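 Fibrillation was followed by ThT (1 μM) fluorescence every 20 min, 444/485 nm, for 250 μM peptide in 10 mM HEPES pH 7.5 shaken at 960 rpm, 37° C. Lag time (t0−2τ) and apparent rate constant (1/τ) come from a sigmoidal fit. Recovery is % of initial concentration remaining soluble after centrifugation and filtration (RP-HPLC).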
row,SMILES,THT assay Lag time (Ex. 76)
1,"CC(C)C[C@H](NC(=O)[C@H](CC(C)C)NC(=O)[C@H](Cc1c[nH]c2ccccc12)NC(=O)[C@H](CCC(N)=O)NC(=O)[C@@H](NC(=O)[C@H](Cc1ccccc1)NC(=O)[C@H](CCC(=O)O)NC(=O)[C@H](CCCNC(=N)N)NC(=O)[C@H](C)NC(=O)[C@H](CCCNC(=N)N)NC(=O)[C@H](CCCNC(=N)N)NC(=O)[C@H](CO)NC(=O)[C@H](CCC(=O)O)NC(=O)[C@H](CC(C)C)NC(=O)[C@H](Cc1ccc(O)cc1)NC(=O)[C@H](CCCCN)NC(=O)[C@H](CO)NC(=O)[C@H](CC(C)C)NC(=O)[C@H](CC(=O)O)NC(=O)[C@H](CO)NC(=O)[C@@H](NC(=O)[C@H](Cc1ccccc1)NC(=O)[C@@H](NC(=O)CNC(=O)[C@H](CCC(N)=O)NC(=O)C(C)(C)NC(=O)[C@@H](N)Cc1c[nH]cn1)[C@@H](C)O)[C@@H](C)O)C(C)C)C(=O)N[C@@H](CC(N)=O)C(=O)N[C@@H](CCCCNC(=O)CC[C@H](NC(=O)COCCOCCNC(=O)COCCOCCNC(=O)CC[C@H](NC(=O)CC[C@H](NC(=O)CCCCCCCCCCCCCCCCC(=O)O)C(=O)O)C(=O)O)C(=O)O)C(N)=O [Example 21, N^ε29-[(4S)-4-carboxy-4-[[2-[2-[2-[[2-[2-[2-[[(4S)-4-carboxy-4-[[(4S)-4-carboxy-4-(17-carboxyheptadecanoylamino)butanoyl]amino]butanoyl]amino]ethoxy]ethoxy]acetyl]amino]ethoxy]ethoxy]acetyl]amino]butanoyl]-[Aib2,Leu10,Glu15,Arg20,Glu21,Leu27,Lys29]-Glucagon amide] (H-H[Aib]QGTFTSDLSKYLESRRAREFVQWLLNK([γGlu-AEEA-AEEA-γGlu-γGlu-C18 diacid])-NH2; N-terminus assumed)",18 h
2,CC(C)C[C@H](NC(=O)[C@H](Cc1ccc(O)cc1)NC(=O)[C@H](CCCCN)NC(=O)[C@H](CO)NC(=O)[C@H](CC(C)C)NC(=O)[C@H](CC(=O)O)NC(=O)[C@H](CO)NC(=O)[C@@H](NC(=O)[C@H](Cc1ccccc1)NC(=O)[C@@H](NC(=O)CNC(=O)[C@H](CCC(N)=O)NC(=O)C(C)(C)NC(=O)[C@@H](N)Cc1c[nH]cn1)[C@@H](C)O)[C@@H](C)O)C(=O)N[C@@H](CCC(=O)O)C(=O)N[C@@H](CO)C(=O)N[C@@H](CCCCN)C(=O)N[C@@H](CCCNC(=N)N)C(=O)N[C@@H](C)C(=O)N[C@@H](CCCNC(=N)N)C(=O)N[C@@H](CCC(=O)O)C(=O)N[C@@H](Cc1ccccc1)C(=O)N[C@H](C(=O)N[C@@H](CCC(N)=O)C(=O)N[C@@H](Cc1c[nH]c2ccccc12)C(=O)N[C@@H](CC(C)C)C(=O)N[C@@H](CC(C)C)C(=O)N[C@@H](CCCCNC(=O)CC[C@H](NC(=O)CC[C@H](NC(=O)[C@H](CO)NC(=O)[C@H](CCC(=O)O)NC(=O)[C@H](CO)NC(=O)CC[C@H](NC(=O)CC[C@H](NC(=O)CCCCCCCCCCCCCCCCC(=O)O)C(=O)O)C(=O)O)C(=O)O)C(=O)O)C(=O)N[C@H](C(N)=O)[C@@H](C)O)C(C)C [Example 52] (H-H[Aib]QGTFTSDLSKYLESKRAREFVQWLLK([γGlu-γGlu-Ser-Glu-Ser-γGlu-γGlu-C18 diacid])T-NH2; N-terminus assumed),45 h
